Measurements reported in patent publication US6903099B2, “Condensed pyrazindione derivatives” (Lilly Icos LLC, priority 2000, dated 2005).

Tests used:
recombinant human PDE5 = biological target: T1, recombinant human PDE5 (Homo sapiens, UniProt O76074); test: Inhibitory effect on cGMP-PDE (PDE5 IC50 determination); assay type: biochemical; settings: in vitro, read-out: IC50 versus PDE5
T1 construct: host or cells: Saccharomyces cerevisiae strain BJ2-54 (ATCC 74465)
Description: The compounds of structural formula (I) were tested for an ability to inhibit PDE5. The ability of a compound to inhibit PDE5 activity is related to the IC50 value for the compound, i.e., the concentration of inhibitor required for 50% inhibition of enzyme activity. The IC50 value for compounds of structural formula (I) were determined using recombinant human PDE5.
Phosphodiesterase activity of the preparations was determined as follows. PDE assays utilizing a charcoal separation technique were performed essentially as described in Loughney et al. (1996). In this assay, PDE activity converts [32P]cAMP or [32P]cGMP to the corresponding [32P]5′-AMP or [32P]5′-GMP in proportion to the amount of PDE activity present. The [32P]5′-AMP or [32P]5′-GMP then was quantitatively converted to free [32P]phosphate and unlabeled adenosine or guanosine by the action of snake venom 5′-nucleotidase. […] The assay was performed at 30° C. in a 100 μL reaction mixture containing (final concentrations) 40 mM Tris HCl (pH 8.0), 1 μM ZnSO4, 5 mM MgCl2, and 0.1 mg/mL bovine serum albumin (BSA). PDE enzyme was present in quantities that yield <30% total hydrolysis of substrate (linear assay conditions). The assay was initiated by addition of substrate ([…] [32P]cAMP or cGMP), and the mixture was incubated for 12 minutes. Seventy-five (75) μg of Crotalus atrox venom then was added, and the incubation was continued for 3 minutes (15 minutes total). The reaction was stopped by addition of 200 μL of activated charcoal (25 mg/mL suspension in 0.1 M NaH2PO4, pH 4). After centrifugation (750×g for 3 minutes) to sediment the charcoal, a sample of the supernatant was taken for radioactivity determination in a scintillation counter and the PDE activity was calculated.
cGMP-PDE activity of compounds of the present invention was measured using a one-step assay adapted from Wells et al., Biochim. Biophys. Acta, 384, 430 (1975). The reaction medium contained 50 mM Tris-HCl, pH 7.5, 5 mM magnesium acetate, 250 μg/ml 5′-Nucleotidase, 1 mM EGTA, and 0.15 μM 8-[H^3]-cGMP. Unless otherwise indicated, the enzyme used was a human recombinant PDE5 (ICOS Corp., Bothell, Wash.).
Compounds of the invention were dissolved in DMSO finally present at 2% in the assay.

Row | IC50 (recombinant human PDE5) [nM] | melting point [°C] | SMILES
1 | 2.3 | 262 to 276 | CN1CC(=O)N2[C@H](c3ccc4c(c3)OCO4)c3[nH]c4ncccc4c3C[C@@H]2C1=O (racemic) [Example 1, (+/−,cis)-10-Benzo[1,3]dioxol-5-yl-7-methyl-5,5a,7,8,10,11-hexahydro-1,7,9a,11-tetraazabeno[β]fluorene-6,9-dione]
2 | 555 | 245 to 266 | CN1CC(=O)N2[C@H](c3ccc4c(c3)OCO4)c3sc4ccccc4c3C[C@@H]2C1=O (racemic) [Example 4, (+/−,cis)-10-Benzo[1,3]dioxol-5-yl-7-methyl-5,7,8,10-tetrahydro-5aH-11-thia-7,9a-diazabenzo[β]fluorene-6,9-dione]
3 | 338 | 274 to 277 | CN1CC(=O)N2[C@H](c3ccc4c(c3)OCO4)c3c([nH]c4ccccc34)C[C@@H]2C1=O [Example 5(a), (5R,9aR)-5-Benzo(1,3)dioxol-5-yl-8-methyl-5,7,8,9a,10,11-hexahydro-5a,8,11-triaza-benzo[b]fluorane-8,9-dione]
4 | 125 | 274 to 277 | CN1CC(=O)N2[C@@H](c3ccc4c(c3)OCO4)c3c([nH]c4ccccc34)C[C@@H]2C1=O [Example 5(b), (5S,9aR)-5-Benzo[1,3]dioxol-5-yl-8-methyl-5,7,8,9a,10,11-hexahydro-5a,8,11-triaza-benzo[b]fluorene-8,9-dione]
